Assay results from US9468607B2, “Ligand directed toroidal nanoparticles for therapy and diagnostic imaging” (WASHINGTON UNIVERSITY, priority 2007, dated 2016).
Read-outs that look alike come from different tables or passages of the source.

What was measured:
[1] = Drug loading efficiency by reverse phase HPLC; format: physicochemical; settings: drug encapsulated in nanoparticles
Experimental: Amphiphilic polymer (˜30 mg) was taken up in 3 mL of anhydrous chloroform (Aldrich, Inc.) and gently vortexed for 2 min. The organic phase (with or without the presence of any contrast agent, ˜5 mL of chloroform layer) was dried (anhydrous Na2SO4). Excess of anhydrous chloroform (35 mL) was added to the organic phase and was taken in a 50 mL, long necked test tube. Doxorubicin (0.27 mg/mL) was dissolved in 5 mL of nanopure water (0.2 μM) and was injected followed by gentle vortexing for few minutes. The chloroform was then slowly evaporated under reduced pressure at 45° C. for […], maintaining the pressure at 420-440 mbar. To this, an additional 5 mL of nanopure water (0.2 μM) was injected. The dispersion was sonicated in a Branson ultra sonic bath for ½ h (until a clear dispersion formed) maintaining the bath temperature at 50° C.
Amphiphilic polymer (˜27 mg) was taken up in 3 mL of anhydrous chloroform (Aldrich, Inc.) and gently vortexed for 2 min. The organic phase (with or without the presence of any contrast agent) was dried (anhydrous Na2SO4). […]
Doxorubicin was analyzed by reversed-phase HPLC system with Waters 600S as a controller, Waters 626 pump to deliver mobile phase, Waters 717 auto sampler for injection and Waters 474 scanning fluorescence detector at wavelength ex 470 nm/em 555 nm for detection. […]

[2] = for Drug release over 3 days: from nanoparticles, dialysis against 0.9% NaCl, 0.2 mg/ml human serum albumin, 37° C.; for % Drug remaining: dialysis at 37° C.

| Compound | loading efficiency [1] | Drug release over 3 days [2] | % Drug remaining ([2]; Day 1, in nanoparticles) | % Drug remaining ([2]; Day 2, in nanoparticles) | % Drug remaining ([2]; Day 3, in nanoparticles) |
| --- | --- | --- | --- | --- | --- |
| COc1cccc2c1C(=O)c1c(O)c3c(c(O)c1C2=O)C[C@@](O)(C(=O)CO)C[C@@H]3O[C@H]1C[C@H](N)[C@H](O)[C@H](C)O1 [Doxorubicin] | 98+/−0.1% | 12+/−0.6% | – | – | – |
| CC[C@@]1(O)C(=O)OCc2c1cc1n(c2=O)Cc2cc3ccccc3nc2-1 [Camptothecin] | 99+/−0.1% | 20+/−3.5% | 93.48% | 87.57% | 83.38% |
